Experimental data: patent US6986993B1, “System for cell-based screening” (Cellomics, Inc., priority 1999, dated 2006)
Where two headings read alike, the source gives them in different places.

Tests used:
[1] = test system: mouse connective tissue fibroblasts (L-929); assay: High-content screen of drug-induced apoptosis, L-929 cells; assay type: cell-based
Description: Cell preparation. The cells chosen for this study were mouse connective tissue fibroblasts (L-929; ATCC CCL-1) and a highly invasive glioblastoma cell line (SNB-19; ATCC CRL-2219) (Welch et al., In Vitro Cell. Dev. Biol. 31:610, 1995). The day before treatment with an apoptosis inducing drug, 3500 cells were placed into each well of a 96-well plate and incubated overnight at 37° C. in a humidified 5% CO2 atmosphere. The following day, the culture medium was removed from each well and replaced with fresh medium containing various concentrations of paclitaxel (0–50 μM) from a 20 mM stock made in DMSO. The maximal concentration of DMSO used in these experiments was 0.25%. The cells were then incubated for 26 h as above. At the end of the paclitaxel treatment period, each well received fresh medium containing 750 nM MITOTRACKER® Red (Molecular Probes; Eugene, Oreg.) and 3 μg/ml Hoechst 33342 DNA-binding dye (Molecular Probes) and was incubated as above for 20 min. Each well on the plate was then washed with HBSS and fixed with 3.7% formaldehyde in HBSS for 15 min at room temperature. The formaldehyde was washed out with HBSS and the cells were permeabilized for 90 s with 0.5% (v/v) Triton X-100, washed with HBSS, incubated with 2 U ml^−1 BODIPY® FL phallacidin (Molecular Probes) for 30 min, and washed with HBSS. The wells on the plate were then filled with 200 μl HBSS, sealed, and the plate stored at 4° C. if Go necessary.
(§1) Image acquisition and analysis on the ArrayScan System. The fluorescence intensity of intracellular MITOTRACKER® Red, Hoechst 33342, and BODIPY® FL phallacidin was measured with the cell screening system as described supra. […]
Calculations and output. A total of 50–250 cells were measured per image field. For each field of cells, the following calculations were performed: (1) The average nuclear area (μm^2) was calculated by dividing the total nuclear area in a field by the number of nuclei detected. (2) The average nuclear perimeter (μm) was calculated by dividing the sum of the perimeters of all nuclei in a field by the number of nuclei detected in that field. […] (3) The average nuclear brightness was calculated by dividing the integrated intensity of the entire field of nuclei by the number of nuclei in that field. […] (4) The average cellular brightness was calculated by dividing the integrated intensity of an entire field of cells stained with MITOTRACKER® dye by the number of nuclei in that field. […] (5) The average cellular brightness was also calculated by dividing the integrated intensity of an entire field of cells stained with BODIPY® FL phallacidin dye by the number of nuclei in that field. […]

[2] = test system: glioblastoma cell line (SNB-19); assay: High-content screen of drug-induced apoptosis, SNB-19 cells; assay type: cell-based; conditions: 26 h
Description: Cell preparation. The cells chosen for this study were mouse connective tissue fibroblasts (L-929; ATCC CCL-1) and a highly invasive glioblastoma cell line (SNB-19; ATCC CRL-2219) (Welch et al., In Vitro Cell. Dev. Biol. 31:610, 1995). The day before treatment with an apoptosis inducing drug, 3500 cells were placed into each well of a 96-well plate and incubated overnight at 37° C. in a humidified 5% CO2 atmosphere. The following day, the culture medium was removed from each well and replaced with fresh medium containing various concentrations of paclitaxel (0–50 μM) from a 20 mM stock made in DMSO. The maximal concentration of DMSO used in these experiments was 0.25%. The cells were then incubated for 26 h as above. […]
as §1
Calculations and output. A total of 50–250 cells were measured per image field. For each field of cells, the following calculations were performed: (1) The average nuclear area (μm^2) was calculated by dividing the total nuclear area in a field by the number of nuclei detected. (2) The average nuclear perimeter (μm) was calculated by dividing the sum of the perimeters of all nuclei in a field by the number of nuclei detected in that field. […]

PC12 cells [3] = conditions: 3 hours, 8 wells
PC12 cells [4] = assay: cells; conditions: Rattus norvegicus, PC-12, read-out: IC50 (50% inhibitory concentration) for dopamine toxicity to neurites
[5] = test system: NF-KB transcription factor; assay: NF-KB cytoplasm to nucleus translocation screen (NucCyt Difference); assay type: cell-based; conditions: human cell line, wells titrated with IL-1; FIG. 16
Description: The distribution of the transcription factor is determined by labeling the nuclei with a DNA specific fluorophore like […] and the transcription factor with a specific fluorescent antibody. After autofocusing on the Hoechst labeled nuclei, an image of the nuclei is acquired in the cell-based screening system and used to create a mask by one of several optional thresholding methods, as described supra. The morphological descriptors of the regions defined by the mask are compared with the user defined parameters and valid nuclear masks are identified and used with the following method to extract transcription factor distributions. Each valid nuclear mask is eroded to define a slightly smaller nuclear region. The original nuclear mask is then dilated in two steps to define a ring shaped region around the nucleus, which represents a cytoplasmic region. The average antibody fluorescence in each of these two regions is determined, and the difference between these averages is defined as the NucCyt Difference. […] Using these two sampling regions, data on nuclear translocation can be automatically analyzed by the cell-based screening system on a cell by cell basis. […]

In the case of `CC(=O)O[C@H]1C(=O)[C@@]2(C)[C@H]([C@H](OC(=O)c3ccccc3)[C@]3(O)C[C@H](OC(=O)[C@H](O)[C@@H](NC(=O)c4ccccc4)c4ccccc4)C(C)=C1C3(C)C)[C@]1(OC(C)=O)CO[C@@H]1C[C@@H]2O` [paclitaxel], the “Concentration giving maximal response in many parameters” value ([1]; L-929 cells, 26 h) is reported as 5 µM, the Mitochondrial potential ([1]; L-929 cells, all concentrations tested (0–50 μM)) is reported as “did not show a sharp decrease in mitochondrial potential” and the Nuclear morphology ([1]; L-929 cells, increasing amounts, 26 h, FIG. 24) is reported as “caused nuclei to enlarge and fragment”. The “Dose for maximal response in L-929 relative to SNB-19 cells” value ([1]; L-929 versus SNB-19) was 500 fold, the “Concentration at which area, brightness and fragmentation of the nucleus and actin polymerization reached a maximum value” [2] was 10 nM and the “Concentration at which mitochondrial potential was minimal” value [2] was 10 nM.

`NCCc1ccc(O)c(O)c1` [dopamine] was tested, and the “Neurite Outgrowth Index (mean +/− standard deviation)” value (PC12 cells [3]; dopamine 0.05 mM) was 43 +/− 4%, the “Neurite Outgrowth Index (mean +/− standard deviation)” value (PC12 cells [3]; dopamine 0.1 mM) was 37 +/− 3% and the “Neurite Outgrowth Index (mean +/− standard deviation)” value (PC12 cells [3]; dopamine 0.2 mM) was 37 +/− 3%. The “Neurite Outgrowth Index (mean +/− standard deviation)” value (PC12 cells [3]; dopamine 0.4 mM) was 25 +/− 3%, the “Neurite Outgrowth Index (mean +/− standard deviation)” value (PC12 cells [3]; dopamine 0.8 mM) was 17 +/− 2% and the “Neurite Outgrowth Index (mean +/− standard deviation)” value (PC12 cells [3]; dopamine 1.6 mM) was 11 +/− 2%. For the same molecule, the IC50 (PC12 cells [4]) was 460 µM.

B1: IL-1: a known inducer of the NF-KB transcription factor (protein, UniProt P01583 113-271, looked up)
Interleukin-1 alpha: SAPFSFLSNVKYNFMRIIKYEFILNDALNQSIIRANDQYLTAAALHNLDEAVKFDMGAYKSSKDDAKITVILRISKTQLYVTAQDEDQPVLLKEMPEIPKTITGSETNLLFFWETHGTKNYFTSVAHPNLFIATKQDYWVCLAGGPPSITDFQILENQA
B1 was tested, and the “NucCyt Difference (NF-KB nuclear translocation) versus amount of agonist” value [5] was “strongly correlated with the amount of agonist added to the wells”.
